Columns and labels:
Pf 3D7 = tested on: Pf 3D7; set-up: method as in PMID 29074775, PMID 32109369, PMID 23260352, PMID 29519896; details: Figure 1, described in literature; cited from earlier work
[1] = tested on: SERA5 processing by SUB1, indicative of upstream activity by PMX; assay: SERA5 processing inhibition assay in parasites (western blot, anti-SERA5); assay type: cell-based, P. falciparum; details: WM382 (1) at 2.5 nM
Excerpt: PMX and PMIX ligand cleavage in P. falciparum parasites. It was next determined whether 38 could inhibit PMX and PMIX processing of known invasion and egress ligands in P. falciparum parasites. […] SERA5 is not a direct substrate of PMX, but is processed by SUB1 which itself is activated by PMX. The degree of downstream processing of SERA5 by SUB1 is indicative of PMX activity.
(§1) In this experiment, synchronized late trophozoite/early schizont stage parasites, expressing HA‐tagged ASP, were incubated with 38 (10 μM), the positive control WM382 (1) (2.5 nM) (a dual potent inhibitor of PMIX and PMX) and the DMSO vehicle control. Parasites from each treatment condition were then lysed and the processing of the known PMX and PMIX substrates were detected by western blot as a corollary of protease activity.
P. falciparum ASP and SERA5 Processing Inhibition Assay. P. falciparum substrate processing inhibition assays were performed as previously described.[28] Synchronized ring stage cultures were treated with test compounds 38 (10 μM) and WM382 (2.5 nM)[28] or DMSO as a vehicle control. […] HA‐tagged apical sushi protein (ASP) was detected in the merozoite fraction with anti‐HA mAb and SERA5 was detected in the supernatant fraction with an anti‐SERA5 polyclonal Ab. […]

PMX = details: Figure 1, described in literature; cited from earlier work
[2] = tested on: PMIX processing of the ASP protein; assay: ASP processing inhibition assay in parasites (western blot, anti-HA); assay type: cell-based, P. falciparum; details: WM382 (1) at 2.5 nM, HA‐tagged ASP parasites
Method: as §1
P. falciparum ASP and SERA5 Processing Inhibition Assay. P. falciparum substrate processing inhibition assays were performed as previously described.[28] Synchronized ring stage cultures were treated with test compounds 38 (10 μM) and WM382 (2.5 nM)[28] or DMSO as a vehicle control. The parasite cultures were grown to the schizont stage before passing over LD magnetic columns (Miltenyi Biotech) to remove uninfected erythrocytes. Parasites were eluted from columns with RPMI 1640 (in‐house) culture medium to which the appropriate inhibitor at the same concentration had been added. Eluted parasites were adjusted to 5×10^6 schizonts/mL and 150 μL added per well of a 96‐well flat‐bottomed culture plate. […] HA‐tagged apical sushi protein (ASP) was detected in the merozoite fraction with anti‐HA mAb and SERA5 was detected in the supernatant fraction with an anti‐SERA5 polyclonal Ab. […]

PMIX = tested on: PMIX; set-up: method as in PMID 29074775, PMID 32109369, PMID 23260352, PMID 29519896; details: Figure 1, described in literature; cited from earlier work

## CCC1(CC)CC(=O)N([C@@H]2CCOc3ccc(C(=O)N[C@H]4CC(C)(C)Oc5ccccc54)cc32)C(=N)N1 [WM382]
Pf 3D7
  EC50: 0.6 nM
[1]
  SERA5 processing (western blot): complete inhibition of SERA5 processing
PMX
  IC50: 0.04 nM
[2]
  ASP processing by PMIX (western blot): inhibition of ASP processing
PMIX
  IC50: 0.4 nM

Reference: PMC9804387, “Substrate Peptidomimetic Inhibitors of P. falciparum Plasmepsin X with Potent Antimalarial Activity” (Chemmedchem, 2022)
